Reference: US20130261066A1, “TREATMENT OF INFLAMMATORY BOWEL DISEASES USING A TRIPEPTIDE” (THE RESEARCH FOUNDATION OF STATE UNIVERSITY OF NEW YORK, priority 2010, published 2013)

Legend:
DSS-induced colitis [1] = experiment: DSS-induced colitis in mice, MC-12 5 or 25 mg/kg ip or po (Example 4); format: in vivo; conditions: for reduction of histological score compared to DSS control: p<0.01
DSS-induced colitis [2] = experiment: as above; format: in vivo; conditions: for reduction of histological score compared to DSS control: p<0.01; remark: listed apart in the source
Method: (§1) Female C57BL/6 and SJL/J mice (Taconic, Hudson, N.Y.), 7-9 weeks old, were kept under controlled temperature (25° C.) with a 12/12-hour light-dark cycle and free access to standard diet and drinking water. The mice were allowed to acclimate for 7 days before the start of experiments.
The mice received 2% dextran sulfate sodium (DSS, MW 36,000 to 50,000, MP Biomedicals, Solon, Ohio) in drinking water for 8 days; control mice received regular drinking water. During the period when DSS was administered, treated mice were given MC-12 at 5 or 25 mg/kg intraperitoneally (ip) whereas the control group was given saline ip. As above, the mice were weighed and monitored for rectal bleeding or prolapse daily. All mice were euthanized at the end of the study period. Blood samples were collected and colons were dissected and their length was measured. The middle part of colon was fixed in 4% neutralized formalin and the rest was frozen for molecular analyses. Paraffin-embedded tissue sections were stained and scored as above.
The fixed colon was cut into six equal fragments, dehydrated and embedded into paraffin. The tissue sections were stained with hematoxylin and eosin (H&E). The histological score was determined by two pathologists as described, based on the degree (0-3) and extent (0-3) of inflammation, crypt damage (0-4) and the area involved (0-4). The scores of each of the first three parameters were multiplied by the fourth and the sum of these three multiples was the final score (ranging from 0 to 40).

[3] = system: NF-κB in NCM 460 cells (normal colon epithelial cells); experiment: NF-κB DNA binding activity (EMSA) in DSS-treated NCM460 cells; format: cell-based
DSS-induced colitis [4] = experiment: DSS-induced colitis in mice, MC12 40 or 80 μg/mouse ip (Example 1); format: in vivo
Method: as §1
The mice received 2% dextran sulfate sodium (DSS, MW 36,000 to 50,000, MP Biomedicals, Solon, Ohio) in drinking water for 7 days; control mice received regular drinking water. During the period when DSS was administered, treated mice were given MC12 40 or 80 μg/mouse intraperitoneally (i.p.) whereas the control group was given saline i.p. The mice were weighed and monitored for rectal bleeding or prolapse daily. All mice were euthanized at the end of the study. Blood samples were collected and colons were dissected and their length was measured. The middle part of colon was fixed in 4% neutralized formalin and the rest was frozen for molecular analyses.
Paraffin-embedded tissue sections were stained with hematoxylin and eosin (H&E). In these sections, the histological score was determined based on epithelial denudation, loss of crypts, ulceration, edema and leukocyte infiltration using criteria that have been described previously (see Perretti, F. et al., 2009, Nat Rev Immunol 9:62-70)

myeloperoxidase (MPO) = experiment: Myeloperoxidase activity in colon tissue of DSS-treated mice; format: in vivo
Method: To further assess the effect of MC12 on the inflammatory changes associated with DSS induced colitis, myeloperoxidase (MPO) activity and cytosolic phospholipase A2 (cPLA2) in tissue samples was determined.
MPO activity is an indicator of the degree of acute inflammation in a given tissue. MPO activity was measured using a commercial kit and following the instructions of the manufacturer (Invitrogen, Eugene, Oreg.). Briefly, a portion of colon tissue was homogenized in PBS and centrifuged at 10,000×g for 15 min and 50 μl of supernatant from each sample were added into a 96-well microplate. 50 μl of 2×APF working solution was added to all sample and standard wells and the plate was incubated at room temperature for 30 min. The reaction was stopped by adding 10 μl of 10× chlorination inhibitor. The fluorescence intensity was measured using a Multiplate Reader (Molecular Devices) at excitation at 485 nm, emission at 530 nm.
To assess the effect of MC-12 on the inflammatory changes associated with DSS-induced colitis, myeloperoxidase activity in tissue samples was determined as above.

TNF-α = experiment: Colon cytokine mRNA by real-time PCR, DSS mice; format: in vivo; conditions: MC-12 at either dose (5 or 25 mg/kg)
Method: (§2) Expression of inflammatory cytokines TNF-α, IFN-γ, IL-1β, IL-6 and IL-10 in the colon was determined by measuring corresponding mRNA levels using real-time PCR. About 100 mg colon tissue were placed in 1 ml of cold Trizol (Invitrogen Life Technologies, Carlsbad, Calif.), immediately homogenized with a rotor power homogenizer, and RNA was extracted according to the manufacturer's instructions. Total RNA was retrotranscribed with M-MLV reverse transcriptase (Invitrogen Life Technologies, Carlsbad, Calif.) using random primers. Real-time quantitative PCR was performed in a CFD-3200 Opticon detector (BioRad, Hercules, Calif., USA) using QuantiTect SYBR Green PCR Kits (Qiagen, Valencia Calif., USA). The PCR cycling conditions were: 40 cycles of 60 seconds at 94° C., 30 seconds at 51.4° C. and 30 seconds at 72° C. PCR primers (forward and reverse primers) were designed based on published sequences: TNF-α: AGGCTGCCCCGACTACGT (SEQ ID NO:12) and […] (SEQ ID NO:13); IFN-γ: CAGCAACAGCAAGGCGAAA (SEQ ID NO:14) and CTGGACCT GTGGGTTGTTGAC (SEQ ID NO:15); IL-1β: […] (SEQ ID NO:16) and […] (SEQ ID NO:17); IL-6: […] (SEQ ID NO:18) and […] (SEQ ID NO:19); […]: […] (SEQ ID NO:20) and […] (SEQ ID NO:21); β-actin: […] (SEQ ID NO:20) and […] (SEQ ID NO:21). Relative expression levels of mRNA were normalized to β-actin.

IL-1β = experiment: Colon cytokine mRNA by real-time PCR, DSS mice; format: in vivo; conditions: MC-12 at either dose (5 or 25 mg/kg)
Method: as §2

IFN-γ = experiment: Colon cytokine mRNA by real-time PCR, DSS mice; format: in vivo; conditions: MC-12 at either dose (5 or 25 mg/kg)
Method: as §2

IL-10 = experiment: Colon cytokine mRNA by real-time PCR, DSS mice; format: in vivo; conditions: MC-12 at either dose (5 or 25 mg/kg)
Method: as §2

IL-6 = experiment: Colon cytokine mRNA by real-time PCR, DSS mice; format: in vivo; conditions: MC-12 at either dose (5 or 25 mg/kg)
Method: as §2

[5] = 2% DSS, MC12 40 or 80 μg/mouse ip

Gln-Ala-Trp (QAW) [MC12]
reduction of histological score compared to DSS control (DSS-induced colitis [1]; 5 mg/kg po): 50.2%
DSS-induced colonic inflammation (H&E histology) (DSS-induced colitis [1]; 25 mg/kg orally): also decreased DSS-induced colonic inflammation
reduction of histological score compared to DSS control (DSS-induced colitis [1]; 25 mg/kg po): 48.4%
increase in weight compared to baseline (DSS-induced colitis [1]; highest ip dose 500 μg/day, day 8): 7.7%
reduction of histological score compared to DSS control (DSS-induced colitis [2]; 5 mg/kg ip): 48.9%
DSS-induced colonic inflammation (H&E histology) (DSS-induced colitis [2]; 25 mg/kg ip): significantly decreased DSS-induced colonic inflammation
reduction of histological score compared to DSS control (DSS-induced colitis [2]; 25 mg/kg ip): 66.8%
weight loss (DSS-induced colitis [2]; 2% DSS 8 days, MC-12 5 or 25 mg/kg): prevented such weight loss in a dose-dependent manner
colon length (DSS-induced reduction) (DSS-induced colitis [2]; 2% DSS 8 days, MC-12 5 or 25 mg/kg, ip and po): prevented this reduction in colon length in a dose-dependent manner
prevention of weight loss, ip compared to po (DSS-induced colitis [2]; 2% DSS 8 days, ip vs po): more effective in preventing weight loss when given ip compared to po
DSS-induced NF-κB-DNA binding activity (NF-κB activation) ([3]; 30 μM, listed as MC 12): significantly blocked this effect
DSS-induced NF-κB-DNA binding activity (NF-κB activation) ([3]; 30 μM, listed as MC-12): essentially eliminated NF-κB activation
DSS-induced NF-κB-DNA binding activity (NF-κB activation) ([3]; 300 μM, listed as MC 12): significantly blocked this effect
DSS-induced NF-κB-DNA binding activity (NF-κB activation) ([3]; 300 μM, listed as MC-12): essentially eliminated NF-κB activation
DSS-induced colonic inflammation (H&E histology) (DSS-induced colitis [4]; 40 μg per mouse ip): significantly decreased DSS-induced colonic inflammation
DSS-induced colonic inflammation (H&E histology) (DSS-induced colitis [4]; 80 μg per mouse ip): also decreased DSS-induced colonic inflammation
weight loss (DSS-induced colitis [4]; 2% DSS 7 days, MC12 40 or 80 μg/mouse ip): dose-dependent reduction in weight loss
colon length (DSS-induced reduction) (DSS-induced colitis [4]; [5]): prevented this reduction in colon length in a dose-dependent manner
histological colitis score (DSS-induced colitis [4]; [5]): reduced the histological colitis score dose-dependently
change in body weight (DSS-induced colitis [4]; 2% DSS, higher dose 80 μg/day ip, day 7): essentially no change in their weight
histological colitis score, significance of reduction (DSS-induced colitis [4]; higher MC12 dose (80 μg)): statistically significant
MPO activity (myeloperoxidase (MPO); MC12 80 μg dose): essentially normalized
MPO activity (myeloperoxidase (MPO); MC12 40 or 80 μg): significant (p<0.01) and concentration-dependent reduction in MPO activity
MPO activity (myeloperoxidase (MPO); MC-12 25 mg/kg): essentially normalized
MPO activity (myeloperoxidase (MPO); MC-12 5 or 25 mg/kg): significant (p<0.01) and concentration-dependent reduction in MPO activity
TNF-α mRNA level in colon (TNF-α): essentially normalized
IL-1β mRNA level in colon (IL-1β): essentially normalized
IFN-γ mRNA level in colon (IFN-γ): below baseline
IL-10 mRNA level in colon (IL-10): below baseline
IL-6 mRNA level in colon (IL-6): below baseline
